# From the Kinase Knowledgebase extract (Sharma et al. 2016)
# What was measured:
# MAPK14 (human) [1] = target: MAPK14 (human) (UniProt Q16539); conditions: pbmc
# MAPK14 (dog) = conditions: pbmc
# MAPK14 (human) [2] = target: MAPK14 (human) (UniProt Q16539); conditions: pbmc; remark: listed apart in the source
# MAPK14 (rat) = conditions: pbmc
# MAPK14 = MAPK14 (UniProt Q16539)
# MAPK14 (human) [3] = target: MAPK14 (human) (UniProt Q16539); conditions: pbmc; remark: listed apart in the source
# MAPK14 (human) [4] = target: MAPK14 (human) (UniProt Q16539); conditions: pbmc; remark: listed apart in the source
# [5] = target: MAPK14, Q16539 [p38 beta Inhibition]
# Chain of MAPK14, Q16539 [p38 beta Inhibition] (Q16539 whole entry, looked up, change not shown): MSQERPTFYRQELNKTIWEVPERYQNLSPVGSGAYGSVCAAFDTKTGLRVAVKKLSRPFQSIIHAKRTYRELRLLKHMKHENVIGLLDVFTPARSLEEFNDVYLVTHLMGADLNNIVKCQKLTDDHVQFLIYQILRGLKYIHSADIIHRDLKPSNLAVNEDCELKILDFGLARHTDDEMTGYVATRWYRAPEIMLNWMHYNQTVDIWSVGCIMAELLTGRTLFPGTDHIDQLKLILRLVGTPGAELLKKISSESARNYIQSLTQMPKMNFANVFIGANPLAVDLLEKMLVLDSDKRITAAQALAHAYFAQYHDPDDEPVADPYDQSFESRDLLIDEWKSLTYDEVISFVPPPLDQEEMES
# Chain of MAPK14 (human) (Q16539 whole entry, looked up): as the sequence (Q16539 whole entry, looked up, change not shown) above
# Chain of MAPK14 (Q16539 whole entry, looked up): as the sequence (Q16539 whole entry, looked up, change not shown) above
compound,measurement,setting,value
OCCC#Cc1nc(-c2ccc(F)cc2)c(-c2ccncc2)n1CCCc1ccccc1,IC50,MAPK14 (human) [1],11 nM
same,IC50,MAPK14 (dog),15 nM
same,IC50,MAPK14 (human) [2],13 nM
same,IC50,MAPK14 (rat),580 nM
same,IC50,MAPK14,1000 nM
same,IC50,MAPK14 (human) [3],6 nM
same,IC50,MAPK14 (human) [4],3 nM
same,IC50,[5],11000 nM
